Experiment: xn = mol fraction of the nth substance listed
Conditions: 100 kPa

C=C[n+]1ccn(CC(N)=O)c1.O=S(=O)([N-]S(=O)(=O)C(F)(F)F)C(F)(F)F + CC#N
electrical conductivity (298.15 K, x1 = 0.02): 2.52 S/m | electrical conductivity (298.15 K, x1 = 0.047): 3.16 S/m | viscosity (298.15 K, x1 = 0.05): 2.88 mPa·s | electrical conductivity (298.15 K, x1 = 0.07): 3.32 S/m | electrical conductivity (298.15 K, x1 = 0.08): 3.26 S/m | electrical conductivity (298.15 K, x1 = 0.1): 3.06 S/m | viscosity (298.15 K, x1 = 0.1): 10.3 mPa·s | electrical conductivity (298.15 K, x1 = 0.2): 1.6 S/m | viscosity (298.15 K, x1 = 0.201): 75 mPa·s | viscosity (298.15 K, x1 = 0.3026): 276 mPa·s | electrical conductivity (298.15 K, x1 = 0.393): 0.39 S/m | viscosity (298.15 K, x1 = 0.4011): 810 mPa·s | electrical conductivity (298.15 K, x1 = 1): 0.01 S/m | viscosity (298.15 K, x1 = 1): 281 mPa·s | electrical conductivity (303.15 K, x1 = 0.01): 1.34 S/m | viscosity (303.15 K, x1 = 0.01): 0.64 mPa·s | electrical conductivity (303.15 K, x1 = 0.02): 2.64 S/m | electrical conductivity (303.15 K, x1 = 0.047): 3.32 S/m | viscosity (303.15 K, x1 = 0.05): 2.84 mPa·s | electrical conductivity (303.15 K, x1 = 0.08): 3.47 S/m | viscosity (303.15 K, x1 = 0.3026): 247 mPa·s | electrical conductivity (303.15 K, x1 = 1): 0.02 S/m | viscosity (303.15 K, x1 = 1): 140 mPa·s | electrical conductivity (308.15 K, x1 = 0.047): 3.52 S/m | viscosity (308.15 K, x1 = 0.05): 2.71 mPa·s | electrical conductivity (308.15 K, x1 = 0.07): 3.74 S/m | electrical conductivity (308.15 K, x1 = 0.08): 3.72 S/m | electrical conductivity (308.15 K, x1 = 0.1): 3.53 S/m | viscosity (308.15 K, x1 = 0.1): 9.2 mPa·s | electrical conductivity (308.15 K, x1 = 0.2): 1.98 S/m | viscosity (308.15 K, x1 = 0.3026): 202 mPa·s | electrical conductivity (308.15 K, x1 = 0.393): 0.6 S/m | viscosity (308.15 K, x1 = 0.4011): 550 mPa·s | electrical conductivity (313.15 K, x1 = 0.01): 1.47 S/m | viscosity (313.15 K, x1 = 0.01): 0.57 mPa·s | electrical conductivity (313.15 K, x1 = 0.02): 2.9 S/m | electrical conductivity (313.15 K, x1 = 0.047): 3.7 S/m | viscosity (313.15 K, x1 = 0.05): 2.49 mPa·s | electrical conductivity (313.15 K, x1 = 0.07): 3.96 S/m | electrical conductivity (313.15 K, x1 = 0.08): 3.95 S/m | electrical conductivity (313.15 K, x1 = 0.2): 2.19 S/m | viscosity (313.15 K, x1 = 0.201): 51 mPa·s | viscosity (313.15 K, x1 = 0.3026): 163 mPa·s | electrical conductivity (313.15 K, x1 = 0.393): 0.73 S/m | electrical conductivity (313.15 K, x1 = 1): 0.05 S/m | viscosity (313.15 K, x1 = 1): 35.3 mPa·s | electrical conductivity (318.15 K, x1 = 0.02): 3.01 S/m | viscosity (318.15 K, x1 = 0.05): 2.39 mPa·s | electrical conductivity (318.15 K, x1 = 0.07): 4.16 S/m | electrical conductivity (318.15 K, x1 = 0.08): 4.17 S/m | electrical conductivity (318.15 K, x1 = 0.1): 4.02 S/m | viscosity (318.15 K, x1 = 0.1): 7.7 mPa·s | viscosity (318.15 K, x1 = 0.201): 45.9 mPa·s | viscosity (318.15 K, x1 = 0.3026): 142 mPa·s | electrical conductivity (318.15 K, x1 = 0.393): 0.86 S/m | viscosity (318.15 K, x1 = 0.4011): 352 mPa·s | electrical conductivity (318.15 K, x1 = 1): 0.07 S/m | viscosity (318.15 K, x1 = 1): 19.8 mPa·s | electrical conductivity (323.15 K, x1 = 0.01): 1.58 S/m | viscosity (323.15 K, x1 = 0.01): 0.52 mPa·s | electrical conductivity (323.15 K, x1 = 0.02): 3.13 S/m | electrical conductivity (323.15 K, x1 = 0.047): 4.03 S/m | viscosity (323.15 K, x1 = 0.05): 2.26 mPa·s | electrical conductivity (323.15 K, x1 = 0.07): 4.36 S/m | electrical conductivity (323.15 K, x1 = 0.1): 4.25 S/m | viscosity (323.15 K, x1 = 0.1): 7 mPa·s | viscosity (323.15 K, x1 = 0.201): 40.2 mPa·s | electrical conductivity (323.15 K, x1 = 0.393): 1 S/m | viscosity (323.15 K, x1 = 0.4011): 288 mPa·s | electrical conductivity (328.15 K, x1 = 0.01): 1.65 S/m | viscosity (328.15 K, x1 = 0.01): 0.48 mPa·s | electrical conductivity (328.15 K, x1 = 0.02): 3.25 S/m | electrical conductivity (328.15 K, x1 = 0.047): 4.19 S/m | viscosity (328.15 K, x1 = 0.05): 2.17 mPa·s | electrical conductivity (328.15 K, x1 = 0.08): 4.61 S/m | electrical conductivity (328.15 K, x1 = 0.2): 2.8 S/m | viscosity (328.15 K, x1 = 0.201): 36.8 mPa·s | viscosity (328.15 K, x1 = 0.3026): 105 mPa·s | electrical conductivity (328.15 K, x1 = 0.393): 1.16 S/m | electrical conductivity (333.15 K, x1 = 0.01): 1.69 S/m | viscosity (333.15 K, x1 = 0.01): 0.47 mPa·s | electrical conductivity (333.15 K, x1 = 0.02): 3.35 S/m | viscosity (333.15 K, x1 = 0.05): 2.01 mPa·s | electrical conductivity (333.15 K, x1 = 0.07): 4.79 S/m | electrical conductivity (333.15 K, x1 = 0.08): 4.77 S/m | electrical conductivity (333.15 K, x1 = 0.1): 4.72 S/m | viscosity (333.15 K, x1 = 0.1): 6.1 mPa·s | electrical conductivity (333.15 K, x1 = 0.2): 3 S/m | viscosity (333.15 K, x1 = 0.3026): 90 mPa·s | electrical conductivity (333.15 K, x1 = 0.393): 1.33 S/m | viscosity (333.15 K, x1 = 0.4011): 193 mPa·s | electrical conductivity (333.15 K, x1 = 1): 0.2 S/m | viscosity (333.15 K, x1 = 1): 6.2 mPa·s

CC#N + C=C[n+]1ccn(CC(N)=O)c1.O=S(=O)([N-]S(=O)(=O)C(F)(F)F)C(F)(F)F
viscosity (298.15 K, x2 = 0): 0.344 mPa·s | viscosity (303.15 K, x2 = 0): 0.324 mPa·s | viscosity (308.15 K, x2 = 0): 0.308 mPa·s | viscosity (313.15 K, x2 = 0): 0.293 mPa·s | viscosity (318.15 K, x2 = 0): 0.277 mPa·s | viscosity (328.15 K, x2 = 0): 0.246 mPa·s | viscosity (333.15 K, x2 = 0): 0.219 mPa·s

O=S(=O)([N-]S(=O)(=O)C(F)(F)F)C(F)(F)F.[Li+] + CC#N
electrical conductivity (298.15 K, x1 = 0.0207): 2.67 S/m | electrical conductivity (298.15 K, x1 = 0.0307): 3.11 S/m | electrical conductivity (298.15 K, x1 = 0.0405): 3.53 S/m | electrical conductivity (298.15 K, x1 = 0.0501): 3.93 S/m | electrical conductivity (298.15 K, x1 = 0.0596): 4.07 S/m | electrical conductivity (298.15 K, x1 = 0.0688): 3.93 S/m | electrical conductivity (298.15 K, x1 = 0.0779): 3.82 S/m | electrical conductivity (298.15 K, x1 = 0.0868): 3.65 S/m | electrical conductivity (303.15 K, x1 = 0.0405): 3.68 S/m | electrical conductivity (303.15 K, x1 = 0.0501): 4.1 S/m | electrical conductivity (303.15 K, x1 = 0.0596): 4.25 S/m | electrical conductivity (303.15 K, x1 = 0.0688): 4.12 S/m | electrical conductivity (303.15 K, x1 = 0.0779): 4.01 S/m | electrical conductivity (303.15 K, x1 = 0.0868): 3.84 S/m | electrical conductivity (308.15 K, x1 = 0.0207): 2.91 S/m | electrical conductivity (308.15 K, x1 = 0.0596): 4.45 S/m | electrical conductivity (308.15 K, x1 = 0.0688): 4.33 S/m | electrical conductivity (308.15 K, x1 = 0.0868): 4.05 S/m | electrical conductivity (313.15 K, x1 = 0.0307): 3.47 S/m | electrical conductivity (313.15 K, x1 = 0.0405): 4.01 S/m | electrical conductivity (313.15 K, x1 = 0.0501): 4.47 S/m | electrical conductivity (313.15 K, x1 = 0.0596): 4.63 S/m | electrical conductivity (313.15 K, x1 = 0.0688): 4.53 S/m | electrical conductivity (313.15 K, x1 = 0.0868): 4.26 S/m | electrical conductivity (318.15 K, x1 = 0.0207): 3.14 S/m | electrical conductivity (318.15 K, x1 = 0.0307): 3.58 S/m | electrical conductivity (318.15 K, x1 = 0.0596): 4.8 S/m | electrical conductivity (318.15 K, x1 = 0.0688): 4.7 S/m | electrical conductivity (318.15 K, x1 = 0.0779): 4.52 S/m | electrical conductivity (318.15 K, x1 = 0.0868): 4.45 S/m | electrical conductivity (323.15 K, x1 = 0.0207): 3.24 S/m | electrical conductivity (323.15 K, x1 = 0.0307): 3.7 S/m | electrical conductivity (323.15 K, x1 = 0.0405): 4.29 S/m | electrical conductivity (323.15 K, x1 = 0.0501): 4.81 S/m | electrical conductivity (323.15 K, x1 = 0.0688): 4.87 S/m | electrical conductivity (323.15 K, x1 = 0.0779): 4.74 S/m | electrical conductivity (323.15 K, x1 = 0.0868): 4.63 S/m | electrical conductivity (328.15 K, x1 = 0.0207): 3.34 S/m | electrical conductivity (328.15 K, x1 = 0.0307): 3.81 S/m | electrical conductivity (328.15 K, x1 = 0.0405): 4.43 S/m | electrical conductivity (328.15 K, x1 = 0.0688): 5.05 S/m | electrical conductivity (328.15 K, x1 = 0.0779): 4.95 S/m | electrical conductivity (328.15 K, x1 = 0.0868): 4.82 S/m | electrical conductivity (333.15 K, x1 = 0.0207): 3.47 S/m | electrical conductivity (333.15 K, x1 = 0.0307): 3.92 S/m | electrical conductivity (333.15 K, x1 = 0.0405): 4.57 S/m | electrical conductivity (333.15 K, x1 = 0.0501): 5.16 S/m | electrical conductivity (333.15 K, x1 = 0.0688): 5.24 S/m | electrical conductivity (333.15 K, x1 = 0.0779): 5.17 S/m | electrical conductivity (333.15 K, x1 = 0.0868): 4.99 S/m

— a compilation of properties of binary mixtures (doi:10.1021/acs.jced.9b00648)
